Bounds are passed on as bounds.

The subject of one test is P-Akt (S473). In words: Cell based AlphaLISA assay, inhibition of P-Akt (S473) in MDA-MB-468 cells (mTORC2 substrate). The conditions noted are these: AlphaLisa, two to four hours at 37° C.; for IC50: Homo sapiens, 4 h, read-out: pIC50 for Inhibition of mTORC1 and mTORC2 Substrate Phosphorylation p-AKT1/2/3-(S473) (converted). In a few lines:
(§1)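 In MDA-MB-468 cells, phosphorylation of 4EBP1 (Thr37/46), P70S6K (Thr389) and AKT (Ser473) was measured after incubation with inhibitor by AlphaLISA SureFire Ultra on cell lysates, in duplicate. IC50 values came from control-normalized concentration-response regression.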

A further test relates to P-P70S6K (T389). Briefly: Cell based AlphaLISA assay, inhibition of P-P70S6K (T389) in MDA-MB-468 cells (mTORC1 substrate). The conditions noted are these: AlphaLisa, two to four hours at 37° C.; for IC50: Homo sapiens, 4 h, read-out: pIC50 for Inhibition of mTORC1 and mTORC2 Substrate Phosphorylation p-P70S6K-(T389) (converted). In a few lines:
as §1
For orientation: Alpha assays give light when donor and acceptor beads are brought close together.

In a further test the test system is P-4E-BP1 (T37/46). In words: Cell based AlphaLISA assay, inhibition of P-4E-BP1 (T37/46) in MDA-MB-468 cells (mTORC1 substrate). The note with it: AlphaLisa, two to four hours at 37° C.; for IC50: Homo sapiens, 4 h, read-out: pIC50 for Inhibition of mTORC1 and mTORC2 Substrate Phosphorylation P-4E-BP1-(T37/46) (converted). In a few lines:
as §1

As to `CO[C@H]1C[C@@H]2CC[C@@H](C)[C@@](O)(O2)C(=O)C(=O)N2CCCC[C@H]2C(=O)O[C@H]([C@H](C)C[C@@H]2CC[C@@H](OC(=O)NCc3cnc(N4CCN(C(=O)CCOCCN5CCN(c6ncc(C(=O)NCCS(=O)(=O)c7ccc(C(=O)N8CCOc9ccc(-c%10ccc(N)nc%10)cc9C8)c(C)c7F)cn6)CC5)CC4)nc3)[C@H](OC)C2)C[C@@H](O)[C@H](C)/C=C(\C)[C@@H](O)[C@@H](OC)C(=O)[C@H](C)C[C@H](C)/C=C/C=C/C=C/1C` [Example 122], the IC50 with P-Akt (S473) was 3.16 to 31.6 nM; in the test on P-P70S6K (T389) it was less than 1 nM; in the test on P-4E-BP1 (T37/46), less than 3.16 nM.
The matching figures for `CO[C@H]1C[C@@H]2CC[C@@H](C)[C@@](O)(O2)C(=O)C(=O)N2CCCC[C@H]2C(=O)O[C@H]([C@H](C)C[C@@H]2CC[C@@H](OC(=O)NCc3cnc(N4CCN(c5ncc(C(=O)N6CCN(c7ncc(C(=O)NCCCCn8nc(-c9ccc%10oc(N)nc%10c9)c9c(N)ncnc98)cn7)CC6)cn5)CC4)nc3)[C@H](OC)C2)CC(=O)[C@H](C)/C=C(\C)[C@@H](O)[C@@H](OC)C(=O)[C@H](C)C[C@H](C)/C=C/C=C/C=C/1C` [Example 138]: less than 3.16 nM, less than 1 nM and less than 3.16 nM.
On to `CO[C@H]1C[C@@H]2CC[C@@H](C)[C@@](O)(O2)C(=O)C(=O)N2CCCC[C@H]2C(=O)O[C@H]([C@H](C)C[C@@H]2CC[C@@H](OC(=O)NCCOCCOCCOCCOCCOCCOCCOCCOCCC(=O)NCc3ccc(Cn4nc(-c5ccc6oc(N)nc6c5)c5c(N)ncnc54)cc3)[C@H](OC)C2)CC(=O)[C@H](C)/C=C(\C)[C@@H](O)[C@@H](OC)C(=O)[C@H](C)C[C@H](C)/C=C/C=C/C=C/1C` [Example 79], for which, in the test on P-Akt (S473), the “pIC50 for Inhibition of mTORC1 and mTORC2 Substrate Phosphorylation p-AKT1/2/3-(S473)” value is recorded as “+ (7.5 > pIC50 ≥ 6.0)”. Besides, the “pIC50 for Inhibition of mTORC1 and mTORC2 Substrate Phosphorylation p-P70S6K-(T389)” value in the test with P-P70S6K (T389) is recorded as “+++ (≥9)”. Moreover, the “pIC50 for Inhibition of mTORC1 and mTORC2 Substrate Phosphorylation P-4E-BP1-(T37/46)” value with P-4E-BP1 (T37/46) was “+++ (≥8.5)”.
As to `CO[C@H]1C[C@@H]2CC[C@@H](C)[C@@](O)(O2)C(=O)C(=O)N2CCCC[C@H]2C(=O)O[C@H]([C@H](C)C[C@@H]2CC[C@@H](OC(=O)N3CCc4nc(N5CCN(CCOCCN6CCN(c7ncc(C(=O)N8CCc9cc(Cn%10nc(-c%11ccc%12[nH]ccc%12c%11)c%11c(N)ncnc%11%10)ccc9C8)cn7)CC6)CC5)ncc4C3)[C@H](OC)C2)CC(=O)[C@H](C)/C=C(\C)[C@@H](O)[C@@H](OC)C(=O)[C@H](C)C[C@H](C)/C=C/C=C/C=C/1C` [Example 131], the IC50 in the test with P-Akt (S473) is 3.16 to 31.6 nM; in the test on P-P70S6K (T389), less than 1 nM; in the test on P-4E-BP1 (T37/46), less than 3.16 nM.
On to `CO[C@H]1C[C@@H]2CC[C@@H](C)[C@@](O)(O2)C(=O)C(=O)N2CCCC[C@H]2C(=O)O[C@H]([C@H](C)C[C@@H]2CC[C@@H](OC(=O)NCc3cnc(N4CCN(c5ncc(C(=O)NCCOCCOCCOCCOCCC(=O)N6CCc7cc(Cn8nc(-c9cnc%10[nH]ccc%10c9)c9c(N)ncnc98)ccc7C6)c(N)n5)CC4)nc3)[C@H](OC)C2)CC(=O)[C@H](C)/C=C(\C)[C@@H](O)[C@@H](OC)C(=O)[C@H](C)C[C@H](C)/C=C/C=C/C=C/1C` [Example 108], for which the “pIC50 for Inhibition of mTORC1 and mTORC2 Substrate Phosphorylation p-AKT1/2/3-(S473)” value in the test on P-Akt (S473) was “− (<6)”. The “pIC50 for Inhibition of mTORC1 and mTORC2 Substrate Phosphorylation p-P70S6K-(T389)” value in the test on P-P70S6K (T389) is given as “++ (9 > pIC50 ≥ 8)”. Besides, the “pIC50 for Inhibition of mTORC1 and mTORC2 Substrate Phosphorylation P-4E-BP1-(T37/46)” value in the test with P-4E-BP1 (T37/46) is “− (<6)”.
Regarding `CO[C@H]1C[C@@H]2CC[C@@H](C)[C@@](O)(O2)C(=O)C(=O)N2CCCC[C@H]2C(=O)O[C@H]([C@H](C)C[C@@H]2CC[C@@H](OC(=O)NCc3cnc(N4CCN(c5ncc(C(=O)N(C)CCOCCOCCOCCOCCC(=O)N6CCc7cc(Cn8nc(-c9ccc%10oc(N)nc%10c9)c9c(N)ncnc98)ccc7C6)c(N)n5)CC4)nc3)[C@H](OC)C2)C[C@@H](OC)[C@H](C)/C=C(\C)[C@@H](O)[C@@H](OC)C(=O)[C@H](C)C[C@H](C)/C=C/C=C/C=C/1C` [Example 95], the IC50 was 3.16 to 31.6 nM in the test on P-Akt (S473), less than 1 nM with P-P70S6K (T389) and less than 3.16 nM with P-4E-BP1 (T37/46).
As for `CO[C@H]1C[C@@H]2CC[C@@H](C)[C@@](O)(O2)C(=O)C(=O)N2CCCC[C@H]2C(=O)O[C@H]([C@H](C)C[C@@H]2CC[C@@H](OC(=O)NCCOCCOCCN3CCN(CCOCCOCCOCCOCCC(=O)N4CCc5cc(Cn6nc(-c7ccc8oc(N)nc8c7)c7c(N)ncnc76)ccc5C4)CC3)[C@H](OC)C2)C[C@@H](O)[C@H](C)/C=C(\C)[C@@H](O)[C@@H](OC)C(=O)[C@H](C)C[C@H](C)/C=C/C=C/C=C/1C` [Example 143], the results for the IC50 in the test on P-Akt (S473), in the test on P-P70S6K (T389) and in the test on P-4E-BP1 (T37/46) were more than 1000 nM, less than 1 nM and 3.16 to 31.6 nM, respectively.
The matching figures for `CO[C@H]1C[C@@H]2CC[C@@H](C)[C@@](O)(O2)C(=O)C(=O)N2CCCC[C@H]2C(=O)O[C@H]([C@H](C)C[C@@H]2CC[C@@H](OC(=O)NCc3cnc(N4CCN(C(=O)CCOCCN5CCN(c6ncc(C(=O)N7CCc8cc(Cn9nc(-c%10cnc%11[nH]ccc%11c%10)c%10c(N)ncnc%109)ccc8C7)cn6)CC5)CC4)nc3)[C@H](OC)C2)CC(=O)[C@H](C)/C=C(\C)[C@@H](O)[C@@H](OC)C(=O)[C@H](C)C[C@H](C)/C=C/C=C/C=C/1C` [Example 110]: more than 1000 nM, 1 to 10 nM and more than 1000 nM.
For `CO[C@H]1C[C@@H]2CC[C@@H](C)[C@@](O)(O2)C(=O)C(=O)N2CCCC[C@H]2C(=O)O[C@H]([C@H](C)C[C@@H]2CC[C@@H](OC(=O)NCc3cnc(N4CCN(c5ncc(C(=O)N6CCN(c7ncc(C(=O)N8CCc9cc(Cn%10nc(-c%11cnc%12[nH]ccc%12c%11)c%11c(N)ncnc%11%10)ccc9C8)cn7)CC6)cn5)CC4)nc3)[C@H](OC)C2)CC(=O)[C@H](C)/C=C(\C)[C@@H](O)[C@@H](OC)C(=O)[C@H](C)C[C@H](C)/C=C/C=C/C=C/1C` [Example 140], in that order: more than 1000 nM, 10 to 1000 nM and 31.6 to 1000 nM.
For `CO[C@H]1C[C@@H]2CC[C@@H](C)[C@@](O)(O2)C(=O)C(=O)N2CCCC[C@H]2C(=O)O[C@H]([C@H](C)C[C@@H]2CC[C@@H](OC(=O)NCc3cnc(N4CCN(C(=O)CCOCCN5CCN(c6ncc(C(=O)NCCS(=O)(=O)c7ccc(C(=O)N8CCOc9ccc(-c%10ccc(N)nc%10)cc9C8)c(C)c7)cn6)CC5)CC4)nc3)[C@H](OC)C2)C[C@@H](O)[C@H](C)/C=C(\C)[C@@H](O)[C@@H](OC)C(=O)[C@H](C)C[C@H](C)/C=C/C=C/C=C/1C` [Example 125], in that order: 3.16 to 31.6 nM, less than 1 nM and less than 3.16 nM.
Turning to `CO[C@H]1C[C@@H]2CC[C@@H](C)[C@@](O)(O2)C(=O)C(=O)N2CCCC[C@H]2C(=O)O[C@H]([C@H](C)C[C@@H]2CC[C@@H](OC(=S)NCCOCCOCCOCCOCCOCCOCCOCCOCCC(=O)N3CCc4cc(Cn5nc(-c6ccc7oc(N)nc7c6)c6c(N)ncnc65)ccc4C3)[C@H](OC)C2)C[C@@H](O)[C@H](C)/C=C(\C)[C@@H](O)[C@@H](OC)C(=O)[C@H](C)C[C@H](C)/C=C/C=C/C=C/1C` [Example 33], the IC50 is more than 1000 nM in the test with P-Akt (S473), less than 1 nM in the test on P-P70S6K (T389) and less than 3.16 nM in the test with P-4E-BP1 (T37/46).
For `CO[C@H]1C[C@@H]2CC[C@@H](C)[C@@](O)(O2)C(=O)C(=O)N2CCCC[C@H]2C(=O)O[C@H]([C@H](C)C[C@@H]2CC[C@@H](OC(=O)N3CCc4nc(N5CCN(C(=O)CCOCCN6CCN(c7ncc(C(=O)N8CCc9cc(Cn%10nc(-c%11ccc%12[nH]ccc%12c%11)c%11c(N)ncnc%11%10)ccc9C8)cn7)CC6)CC5)ncc4C3)[C@H](OC)C2)CC(=O)[C@H](C)/C=C(\C)[C@@H](O)[C@@H](OC)C(=O)[C@H](C)C[C@H](C)/C=C/C=C/C=C/1C` [Example 127], in that order: more than 1000 nM, less than 1 nM and 3.16 to 31.6 nM.
For `CO[C@H]1C[C@@H]2CC[C@@H](C)[C@@](O)(O2)C(=O)C(=O)N2CCCC[C@H]2C(=O)O[C@H]([C@H](C)C[C@@H]2CC[C@@H](OC(=O)NCCOCCOCCOCCOCCOCCOCCOCCOCCC(=O)NCCS(=O)(=O)c3ccc(C(=O)N4CCOc5ccc(-c6ccc(N)nc6)cc5C4)c(C)c3)[C@H](OC)C2)CC(=O)[C@H](C)/C=C(\C)[C@@H](O)[C@@H](OC)C(=O)[C@H](C)C[C@H](C)/C=C/C=C/C=C/1C` [Example 40], in that order: 3.16 to 31.6 nM, less than 1 nM and less than 3.16 nM.
`CO[C@H]1C[C@@H]2CC[C@@H](C)[C@@](O)(O2)C(=O)C(=O)N2CCCC[C@H]2C(=O)O[C@H]([C@H](C)C[C@@H]2CC[C@@H](OC(=O)NCc3cnc(N4CCN(c5ncc(C(=O)NCCOCCC(=O)N6CCN(c7ncc(C(=O)NCCCCn8nc(-c9ccc%10oc(N)nc%10c9)c9c(N)ncnc98)cn7)CC6)cn5)CC4)nc3)[C@H](OC)C2)CC(=O)[C@H](C)/C=C(\C)[C@@H](O)[C@@H](OC)C(=O)[C@H](C)C[C@H](C)/C=C/C=C/C=C/1C` [Example 111]: the IC50 in the test with P-Akt (S473) is more than 1000 nM; with P-P70S6K (T389), less than 1 nM; in the test on P-4E-BP1 (T37/46) it was less than 3.16 nM.

Values taken from patent US10980889B1 (Revolution Medicines, Inc., priority 2018, dated 2021).
